One assay has as its target T1, thrombin receptor (Homo sapiens, UniProt P25116).
T1 construct: centrifuged at 40,000 g for 60 minutes to yield platelet membrane; from tissue; host or cells: platelet membrane prepared from donor blood (platelet rich plasma)
T1 sequence (P25116 22-425): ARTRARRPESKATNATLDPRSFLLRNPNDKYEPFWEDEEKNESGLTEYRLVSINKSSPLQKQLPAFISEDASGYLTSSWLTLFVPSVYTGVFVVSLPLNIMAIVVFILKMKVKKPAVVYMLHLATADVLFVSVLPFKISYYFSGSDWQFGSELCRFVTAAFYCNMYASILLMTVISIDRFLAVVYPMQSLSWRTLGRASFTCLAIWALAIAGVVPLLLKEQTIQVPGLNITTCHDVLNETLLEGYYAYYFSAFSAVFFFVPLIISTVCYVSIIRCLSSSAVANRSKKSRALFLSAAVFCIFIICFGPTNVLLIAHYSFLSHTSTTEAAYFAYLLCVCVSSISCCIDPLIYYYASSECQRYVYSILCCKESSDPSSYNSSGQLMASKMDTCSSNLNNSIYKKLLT
The experiment in a line: Receptor binding assay ([3H] high affinity TRAP, platelet membrane). Here is the method: Blood was sampled from a healthy adult who had taken no drugs for one week, and 3.8% citric acid (a ratio of 1:9 with respect to the blood) was added as an anticoagulant. The mixture was then centrifuged at 100 g for 10 minutes at room temperature to yield platelet rich plasma (PRP). The platelet precipitate obtained by centrifuging the PRP was homogenized with a Dounce homogenizer, and then centrifuged at 40,000 g for 60 minutes to yield platelet membrane. The platelet membrane was suspended in a solution prepared by adding DMSO (dimethyl sulfoxide) at 1% concentration to Buffer 1: a 50 mM Tris-HCl buffer containing 10 mM MgCl2 and 1 mM EGTA (ethylene glycol tetraacetic acid), and the suspension was stored at −80° C. Bovine albumin and DMSO were added to Buffer 1 at 0.1% and 20%, respectively, to make preparation solutions for the test compound. The test compounds (20 μl) diluted at various concentrations with the preparation solutions were added to a 96-well multiscreen plate. […] After then adding 100 μl of the previously prepared platelet membrane suspension (0.4 mg/ml) and mixing, incubation was performed at 37° C. for 1 hour. The reaction mixture was suction filtered and then rinsed 3 times with 200 μl of Buffer 1. Next, 30 μl of liquid scintillator was added for measurement of the radioactivity of the plate using a Top Counter (Packard), the value of the radioactivity in the presence of the test compound minus non-specific binding portion was divided by the specific binding value (the value of the binding in the absence of the compound minus the non-specific binding portion) to determine the binding ratio, from which the IC50 value was calculated. The non-specific binding was the value obtained with addition of 10 μM of high affinity TRAP.

Assay [1] concerns platelet rich plasma (PRP), thrombin-induced platelet aggregation. The experiment in a line: Inhibitory effects on platelet aggregation using platelet rich plasma. The class given is cell-based. The conditions noted are these: Homo sapiens, 0.1 h, read-out: Thr IC50. On the procedure:
[Inhibitory Effects on Platelet Aggregation Using Platelet Rich Plasma]
Blood was sampled from a healthy adult who had taken no drugs for one week, and 3.8% citric acid (a ratio of 1:9 with respect to the blood) was added as an anticoagulant. The mixture was then centrifuged at 100 g for 10 minutes at room temperature to yield platelet rich plasma (PRP). The PRP-removed blood was further centrifuged at 1000 g for 10 minutes to yield platelet poor plasma (PPP). The number of platelet was counted using a multi-parameter automatic hemocyte counter (K4500, Sysmex), and the PRP was diluted to approximately 300,000/μl with the PPP. The platelet aggregation activity was determined in the following manner using an Aggregometer (MC Medical). GPRP-NH2 (final concentration 1 mM, 25 μl) was added as a fibrin polymerization inhibitor to the PRP (175 μl), after which Ca-free Tyrode solution (control) or the test compound suspension (25 μl) at different concentrations was added, incubation was performed at 37° C. for 3 minutes and then 25 μl of thrombin at the minimum concentration required to produce maximum aggregation (final concentration: optimum concentration among 0.5–1.5 units/ml) was added, for initiation of platelet aggregation. PRP and Ca-free Tyrode solution (control) or the preparation solutions at various concentrations were pre-incubated at 37° C. for 60 minutes, prior to the platelet aggregation reaction in some experiments. After addition of thrombin, the aggregation reaction was examined for 6 minutes and the areas under the aggregation curves were compared to determine the inhibition ratio, from which the IC50 value was calculated.

For assay [2], the system named is Vascular smooth muscle cells (rSMC). The experiment in a line: Rat smooth muscle cell proliferation assay. The class given is cell-based. As to conditions: 48 h; male SD rat aorta rSMC; thrombin 0.1 unit/ml; 2 days; MTT, OD 590 nm; read-out: Rat SMC IC50. On the procedure: [Rat Smooth Muscle Cell Proliferation Assay]
Vascular smooth muscle cells (rSMC) were isolated from male SD rat aorta by the explant method. DMEM medium (Sigma) containing 10% fetal bovine serum (GibcoBRL), streptomycin and penicillin was used as the proliferation medium, and subculture was carried out at 37° C. in the presence of 5% CO2. Culture was initiated after adding 100 μl of rSMC suspension in proliferation medium at a concentration of 1×10^4 cells/ml, to a 96-well plate. After 3 days, cells were rinsed twice with 100 μl of DMEM medium, the medium was exchanged with 100 μl of DMEM medium containing 0.1% albumin (starvation medium), and serum starvation was initiated. The medium was exchanged two days after the serum starvation, 80 μl of starvation medium and 10 μl of the test compound diluted to different concentrations with the starvation medium were added, and then 10 μl of thrombin dissolved in the starvation medium (final concentration: 0.1 unit/ml) was added prior to further incubation for 2 days.
Upon adding 20 μl of MTT (3-[4,5-dimethylthiazol-2-yl]-2,5-diphenyltetrazolium bromide) dissolved in DPBS to 7.5 mg/ml, incubation was continued for 4 hours. The medium was removed by suction, 50 μl of a 10% SDS/0.029% ammonia solution was added, and the mixture was allowed to stand for 2 hours in a CO2 incubator for complete lysis of the cells. As an index of cell proliferation, the OD 590 nm was measured using a plate reader (EL340, BIO-TEK Instruments Inc.), and the control OD value (OD value in the absence of the test compound) minus the OD value in the presence of the test compound was divided by the control OD value minus the blank OD value (OD value without thrombin stimulation) to determine the inhibition ratio, from which the IC50 value was calculated.

Setting [3] is: platelet membrane of healthy adult, 25 nM [3H] high affinity TRAP, 37° C., 1 hour, read-out: RBA IC50.
The mark [4] stands for this setting: PRP of healthy adult, aggregation initiated with thrombin (0.5–1.5 units/ml), area under aggregation curve, 6 minutes.

pIC50: −log10 of the molar value. Where a name gives a salt, the structure may show the parent alone. Read-outs that look alike come from different tables or passages of the source.

In patent US7244730B2, “2-iminopyrrolidine derivatives” (Eisai Co., Ltd, priority 2001, dated 2007) one finds IC50 data, which are given here for 13 compounds.

Take `CCOc1cc2c(c(F)c1OCC)C(=N)N(CC(=O)c1cc(N3CCN(C(C)=O)CC3)c(OC)c(C(C)(C)C)c1)C2` [Example 13, 1-[3-(4-Acetyl-piperazin-1-yl)-5-tert-butyl-4-methoxy-phenyl]-2-(5,6-diethoxy-7-fluoro-1-imino-1,3-dihydro-isoindol-2-yl)ethanone hydrobromide]: the pIC50 (usually the IC50 on a negative log10 scale, so that one unit is a factor of ten) on thrombin receptor (setting [3]) was 7.34; in assay [1] (setting [4]), 7.35; in assay [2] it was 6.92.
Taken in the same sequence, the figures for `CCOc1cc(C(=O)CN2Cc3cc(OCC)c(OCC)c(F)c3C2=N)cc(C(C)(C)C)c1OC` [Example 28, 1-(3-tert-Butyl-5-ethoxy-4-methoxy-phenyl)-2-(5,6-diethoxy-7-fluoro-1-imino-1,3-dihydro-isoindol-2-yl)-ethanone hydrobromide] were 7.59, 7.36 and 7.30.
On to `CCOc1cc2c(c(F)c1OCC)C(=N)N(CC(=O)c1cc(N(C)C)c(OC)c(C(C)(C)C)c1)C2` [Example 6, 1-(3-tert-Butyl-5-dimethylamino-4-methoxy-phenyl)-2-(5,6-diethoxy-7-fluoro-1-imino-1,3-dihydro-isoindol-2-yl)-ethanone hydrobromide], for which the figures for the pIC50 (on thrombin receptor (setting [3]); in assay [1] (setting [4]); in assay [2]) were 7.62, 7.14 and 7.72, respectively.
On to `CCOc1cc2c(c(F)c1OCC)C(=N)N(CC(=O)c1cc(N3C[C@H](OCC)[C@@H](O)C3)c(OC)c(C(C)(C)C)c1)C2` [Example 17, 1-[3-tert-Butyl-5-((3S,4S)-3-ethoxy-4-hydroxy-pyrrolidin-1-yl)-4-methoxy-phenyl]-2-(5,6-diethoxy-7-fluoro-1-imino-1,3-dihydro-isoindol-2-yl)ethanone trifluoroacetate], for which the pIC50 was 7.49 at thrombin receptor (setting [3]) and 7.10 in assay [1] (setting [4]).
Take `CCNC(=O)Oc1c(OCC)cc(C(=O)CN2Cc3cc(OCC)c(OCC)c(F)c3C2=N)cc1C(C)(C)C` [Example 29, 2-tert-butyl-4-[2-(5,6-diethoxy-7-fluoro-1-imino-1,3-dihydro-isoindol-2-yl)-acetyl]-6-ethoxy-phenyl ethylcarbamate hydrobromide]: the pIC50 at thrombin receptor was 7.12; in assay [1], 7.28; in assay [2], 7.15.
`CCOc1cc2c(c(F)c1OCC)C(=N)N(CC(=O)c1cc3c(c(C(C)(C)C)c1)OCCN3CC#N)C2` [Example 5, {8-tert-Butyl-6-[2-(5,6-diethoxy-7-fluoro-1-imino-1,3-dihydro-isoindol-2-yl)acetyl]-2,3-dihydrobenzo[1,4]oxazin-4-yl}acetonitrile hydrobromide]: the pIC50 was 7.77 on thrombin receptor (setting [3]), 6.54 in assay [1] (setting [4]) and 8.21 in assay [2].
On the same counts, the results for `CCOc1cc2c(c(F)c1OCC)C(=N)N(CC(=O)c1cc(N3CCOCC3)c(OC)c(C(C)(C)C)c1)C2` [Example 7] are 7.59, 7.39 and 7.49.
Take `CCOc1cc2c(c(F)c1OCC)C(=N)N(CC(=O)c1cc(N3CCN(CC(=O)O)CC3)c(OC)c(C(C)(C)C)c1)C2` [Example 127, (4-{3-tert-Butyl-5-[2-(5,6-diethoxy-7-fluoro-1-imino-1,3-dihydro-isoindol-2-yl)-acetyl]-2-methoxy-phenyl}-piperazin-1-yl)-acetic acid dihydrochloride]: the pIC50 at thrombin receptor (setting [3]) was 7.77; in assay [1] (setting [4]), 7.68; in assay [2] it was 6.82.
On the same counts, the results for `CCOc1cc2c(c(F)c1OCC)C(=N)N(CC(=O)c1cc(N3CCN(C(=O)COC)CC3)c(OC)c(C(C)(C)C)c1)C2` [Example 16, 1-{3-tert-Butyl-4-methoxy-5-[4-(2-methoxy-acetyl)piperazin-1-yl]phenyl}-2-(5,6-diethoxy-7-fluoro-1-imino-1,3-dihydro-isoindol-2-yl)-ethanone hydrobromide] are 7.28, 7.24 and 7.23.
Take `CCOc1cc2c(c(F)c1OCC)C(=N)N(CC(=O)c1cc(N3CCC(=O)CC3)c(OC)c(C(C)(C)C)c1)C2` [Example 94, 1-{3-tert-Butyl-5-[2-(5,6-diethoxy-7-fluoro-1-imino-1,3-dihydro-isoindol-2-yl)-acetyl]-2-methoxy-phenyl}-piperidin-4-one hydrobromide]: the pIC50 at thrombin receptor (setting [3]) was 7.89; in assay [1] (setting [4]) it was 7.54; in assay [2], 7.36.
As for `CCOc1cc2c(c(F)c1OCC)C(=N)N(CC(=O)c1cc(NCC#N)c(OC)c(C(C)(C)C)c1)C2` [Example 10, (3-tert-Butyl-5-[2-(5,6-diethoxy-7-fluoro-1-imino-1,3-dihydro-isoindol-2-yl)-acetyl]-2-methoxy-phenylamino}-acetonitrile hydrobromide], the pIC50 was 7.59 on thrombin receptor (setting [3]), 7.62 in assay [1] (setting [4]) and 7.47 in assay [2].
Turning to `CCOc1cc2c(cc1C(=O)NC)C(=N)N(CC(=O)c1cc(OCC)c(O)c(C(C)(C)C)c1)C2` [Example 109, 2-[2-(3-tert-Butyl-5-ethoxy-4-hydroxy-phenyl)-2-oxo-ethyl]-6-ethoxy-3-imino-2,3-dihydro-1H-isoindole-5-carboxylic acid methylamide hydrobromide], the pIC50 is 7.52 on thrombin receptor (setting [3]), 7.92 in assay [1] (setting [4]) and 7.38 in assay [2].
In the case of `CCOc1cc2c(c(F)c1OCC)C(=N)N(CC(=O)c1cc(N3CCN(CC#N)CC3)c(OC)c(C(C)(C)C)c1)C2` [Example 11, (4-{3-tert-Butyl-5-[2-(5,6-diethoxy-7-fluoro-1-imino-1,3-dihydro-isoindol-2-yl)-acetyl]-2-methoxy-phenyl}piperazin-1-yl)-acetonitrile hydrobromide], the results for the pIC50 (at thrombin receptor (setting [3]); in assay [1] (setting [4]); in assay [2]) were 7.35, 7.24 and 7.12, respectively.
